Source: US9145389B2, “Benzimidazole compound crystal” (Takeda Pharmaceutical Company Limited, priority 1999, dated 2015)

Columns and labels:
[1] = test system: Gastric Mucosal Injury Due to Stress of Water Immersion Restraint in Rat; assay: Suppressive action on gastric mucosal injury due to stress of water immersion restraint in rat; assay type: in vivo; settings: male SD rats, 3 mg/kg orally 30 minutes before stressing
Procedure: Suppressive Action on Gastric Mucosal Injury Due to Stress of Water Immersion Restraint in Rat
Male SD rats (7 weeks of age, weighing 230 to 250 g) were fasted for 24 hours, after which they were stressed by being housed in restraint cages and immersed to below the xiphoid process in a standing position in a 23° C. constant-temperature water chamber. After 5 hours, the rats were removed from the cages and sacrificed using gaseous carbon dioxide, and their stomachs excised. After the lower portion of the esophagus was clipped, a 1% formalin solution (10 ml) was injected into the stomach via the duodenum, which was then occluded, and the stomach was immersed in the same solution. After 10 minutes, an incision was made along the greater curvature, and the length (mm) of each mucosal injury was measured under a stereomicroscope. The overall sum of the injury lengths in each stomach was taken as the gastric mucosal injury index.
The crystals of (R)-2-[[[3-methyl-4-(2,2,2-trifluoroethoxy)-2-pyridinyl]methyl]sulfinyl]-1H-benzimidazole (R(+)-lansoprazole) as obtained in Example 2 were suspended in 0.5% methyl cellulose (pH 9.5) containing 0.05 M NaHCO3 and orally administered at 30 minutes before stressing (dosing volume 2 ml/kg). Each treatment group comprised 9 animals. The control group (solvent administration group) and the drug administration group were compared by Steel's test.

[2] = Stability during storage at 60° C. (stopper removed), content by HPLC; assay type: physicochemical; settings: for Description: appearance after storage at 60° C. (exposed)
Procedure: The crystals of R(+)-lansoprazole as obtained in Example 2 (about 5 mg) and amorphous R(+)-lansoprazole as obtained in Reference Example 1 (about 5 mg) were each taken in a colorless glass bottle, and their stability during storage at 60° C. (stopper removed) was examined. A 25 ml solution (concentration: about 0.2 mg/ml) of the sample after completion of storage in the mobile phase, along with a standard solution prepared using the initial lot, was analyzed under the HPLC conditions shown below, and the R(+)-lansoprazole content (residual percentage) was calculated from the peak area obtained.

| Description ([2]; 1 week, listed as Crystal) | Description ([2]; 2 weeks, listed as Crystal) | Description ([2]; 4 weeks) | Content (Residual percentage) ([2]; storage at 60° C. (exposed), 1 week, listed as Crystal) [%] | Content (Residual percentage) ([2]; storage at 60° C. (exposed), 2 weeks, listed as Crystal) [%] | Content (Residual percentage) ([2]; storage at 60° C. (exposed), 4 weeks) [%] | Content retained ([2]; storage at 60° C. (exposed), for up to 4 weeks) | Description ([2]; 1 week, listed as Amorphous) | Description ([2]; 2 weeks, listed as Amorphous) | Content (Residual percentage) ([2]; storage at 60° C. (exposed), 1 week) [%] | Content (Residual percentage) ([2]; storage at 60° C. (exposed), 1 week, listed as Amorphous) [%] | Content (Residual percentage) ([2]; storage at 60° C. (exposed), 2 weeks) [%] | Content (Residual percentage) ([2]; storage at 60° C. (exposed), 2 weeks, listed as Amorphous) [%] | Structure (SMILES) | Gastric mucosal injury index ([1]; 5 hours water immersion restraint, mean ± standard error, 9 animals) [mm] | Suppression rate ([1]; versus control group) [%] |
| --- | --- | --- | --- | --- | --- | --- | --- | --- | --- | --- | --- | --- | --- | --- | --- |
| Light-brown | Brown | Brown | 97.0 | 93.8 | 91.7 | exceeding 90% |  |  |  |  |  |  | Cc1c(OCC(F)(F)F)ccnc1C[S@@+]([O-])c1nc2ccccc2[nH]1 [Example 2, (R)-2-[[[3-methyl-4-(2,2,2-trifluoroethoxy)-2-pyridinyl]methyl]sulfinyl]-1H-benzimidazole] | 0.2 ± 0.2 | 98.0 |
|  |  |  |  |  |  |  | Brown | Blackish brown | 70.8 | 70.8 | 57.5 | 57.5 | Cc1c(OCC(F)(F)F)ccnc1C[S@@+]([O-])c1nc2ccccc2[nH]1 [Reference Example 1, (R)-2-[[[3-methyl-4-(2,2,2-trifluoroethoxy)-2-pyridinyl]methyl]sulfinyl]-1H-benzimidazole, reference compound] |  |  |
